“And” between values parts separate entries of the source, which are not always exact repeats. Equal entries are not always repeated. Where two headings read alike, the source gives them in different places. Marks after values point to notes of the source that are not given here.
How the values were obtained:
[1] = test system: THP-1 cells
[2] = target: T1, human recombinant NLRP3 (Homo sapiens, UniProt Q96P20); experiment: In vitro NLRP3 ATPase activity, on-bead ADP-Glo assay with immobilised NLRP3-GFP; format: biochemical; settings: for Inhibition of NLRP3 ATPase activity (% reduction in ATP hydrolysis relative to vehicle control) / inhibition at 100 µM: 100 μM compound, ATP 800 μM, mean ± SEM, n = 4; for NLRP3 ATPase inhibition at 1 mM compared with 100 µM: 1 mM vs 100 µM compound, data not shown; for inhibition at 100 µM: read-out: Inhibition of NLRP3 ATPase activity (% reduction in ATP hydrolysis relative to vehicle control)
T1 construct: made in house; host or cells: HEK293T cells (transient transfection, captured from lysate on GFP-Trap Sepharose)

[3] = test system: NLRP3-dependent pyroptosis in differentiated THP-1 cells; experiment: NLRP3-dependent pyroptosis (LDH release) in PMA-differentiated, LPS-primed, ATP-triggered THP-1 cells; format: cell-based, human; settings: for inhibition at 10 µM: THP-1, 1.5 h, read-out: Pyroptosis Decrease, % inhibition at 10 µM; for inhibition at 1 µM: THP-1, 1 µM test compound (Figure 3)
[4] = test system: IL-1β release in differentiated THP-1 cells; experiment: IL-1β release (ELISA) in supernatants of LPS/ATP-treated differentiated THP-1 cells; format: cell-based, human; settings: same experiments as pyroptosis, vs vehicle-treated cells, mean ± SEM; for IL-1β Inhibition, % inhibition at 10 µM: 10 µM test compound; for inhibition at 10 µM: Homo sapiens, THP-1, 10 µM test compound
Protocol: Different techniques could be used to study NLRP3 inhibitors; the use of differentiated THP-1 cells treated with NLRP3 activating stimuli is suitable for the screening of large series of compounds [48]. All the synthesised compounds (Figure 2) were evaluated for their NLRP3 inhibitory activity by measuring their ability to prevent NLRP3-dependent pyroptosis in differentiated THP-1 cells. THP-1 cells were differentiated into macrophages by treatment with phorbol-myristate acetate (PMA; 50 nM; 24 h) and then treated with lipopolysaccharide (LPS; 10 µg/mL; 4 h) to promote NLRP3 expression. The cells were then incubated with test compounds at the fixed concentration of 10 µM for 1 h. Test compounds were dissolved in serum free medium containing 0.1% DMSO as the vehicle. NLRP3 was activated by the addition of ATP (5 mM), and the pyroptotic cell death was evaluated after 1.5 h by measuring the lactate dehydrogenase (LDH) released in the cell supernatants. The obtained results, expressed as pyroptosis% decrease with respect to vehicle-treated cells, are collected in Table 1. In the same experiments, the release of IL-1β was measured via an ELISA assay and the results, expressed as % inhibition of IL-1β release versus vehicle-treated cells, are reported in Table 1. Finally, the cytotoxicity of the synthesised compounds was evaluated by MTT assay after treatment of THP-1 cells with increasing concentration of test compounds (0.1–100 µM) for 72 h. […] The structural modulation of compound 2 was then carried out in order to understand whether it was possible to restore/increase the activity without the re-introduction of a Michael acceptor substructure.
Human myelomonocytic THP-1 cells were cultured in RPMI 1640 medium (Aurogene, Rome, Italy) supplemented with fetal bovine serum (10%; Aurogene), L-glutamine (2 mM; Aurogene), penicillin (100 IU/mL; Aurogene) and streptomycin ([…]; Aurogene). Cell culture medium was replaced every 2−3 days, and the cultures were maintained at 37 °C and 5% CO2 in a fully humidified incubator. The day before each experiment, cells were plated in 48-well culture plates (90.000 cells/well) and were differentiated by treatment with PMA (50 nM, 24 h; Sigma-Aldrich). PMA-differentiated THP-1 cells were washed twice with phosphate-buffered saline (PBS) and primed with LPS (10 μg/mL, 4 h; Sigma-Aldrich) in serum-free medium. Cells were then incubated with compounds dissolved in medium containing 0.1% DMSO for 1 h and cell death was triggered with ATP (5 mM, 90 min; Sigma-Aldrich). MCC950 (Sigma-Aldrich batch #45216 and batch #85021 and from Crysdot (product n. CD31002496; OS05876-18070932) was used in the experiments.
IL-1β release was quantified in differentiated THP-1 supernatant, obtained as previously described, using Human IL-1 beta Uncoated ELISA kit (Invitrogen, Waltham, MA, USA), according to the manufacture’s instruction.

[5] = 10 µM test compound, 1 h before ATP (5 mM, 90 min), vs vehicle-treated cells, mean ± SEM, NA = not active at 10 µM
[6] = 72 h treatment, 0.1–100 µM, MTT, TC50 ± SEM of three experiments
[7] = Homo sapiens, 10 µM test compound, 1 h before ATP (5 mM, 90 min), vs vehicle-treated cells, mean ± SEM, NA = not active at 10 µM

T1 sequence (Q96P20 whole entry): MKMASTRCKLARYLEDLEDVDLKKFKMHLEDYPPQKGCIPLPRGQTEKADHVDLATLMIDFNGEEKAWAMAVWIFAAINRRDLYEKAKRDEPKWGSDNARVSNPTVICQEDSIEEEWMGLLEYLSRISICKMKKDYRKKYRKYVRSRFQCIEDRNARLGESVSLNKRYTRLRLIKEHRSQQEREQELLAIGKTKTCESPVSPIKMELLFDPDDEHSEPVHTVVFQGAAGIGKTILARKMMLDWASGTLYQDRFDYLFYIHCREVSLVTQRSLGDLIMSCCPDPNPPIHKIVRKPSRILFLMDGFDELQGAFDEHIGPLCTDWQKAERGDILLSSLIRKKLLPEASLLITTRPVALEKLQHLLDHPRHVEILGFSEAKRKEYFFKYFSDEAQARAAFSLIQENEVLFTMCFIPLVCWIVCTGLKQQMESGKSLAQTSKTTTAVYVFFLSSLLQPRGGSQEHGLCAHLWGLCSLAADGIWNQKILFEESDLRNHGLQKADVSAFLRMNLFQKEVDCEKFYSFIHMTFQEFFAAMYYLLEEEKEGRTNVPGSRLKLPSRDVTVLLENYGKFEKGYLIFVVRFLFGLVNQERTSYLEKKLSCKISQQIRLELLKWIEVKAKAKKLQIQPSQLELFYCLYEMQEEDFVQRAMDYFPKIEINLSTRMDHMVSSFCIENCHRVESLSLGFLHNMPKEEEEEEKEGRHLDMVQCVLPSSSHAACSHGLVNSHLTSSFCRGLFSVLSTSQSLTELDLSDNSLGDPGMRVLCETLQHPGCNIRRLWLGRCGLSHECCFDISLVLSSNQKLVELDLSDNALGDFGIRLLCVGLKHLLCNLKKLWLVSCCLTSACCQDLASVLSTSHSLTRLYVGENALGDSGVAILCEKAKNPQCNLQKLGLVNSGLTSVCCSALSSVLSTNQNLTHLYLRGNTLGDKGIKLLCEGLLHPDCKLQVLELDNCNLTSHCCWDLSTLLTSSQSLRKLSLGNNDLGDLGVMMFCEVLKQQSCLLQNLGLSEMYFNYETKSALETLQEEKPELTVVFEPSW

Row | Compound | Inhibition of NLRP3 ATPase activity (% reduction in ATP hydrolysis relative to vehicle control) [2] | Pyroptosis Decrease, % inhibition at 10 µM [3, 5] | Cytotoxicity TC50 [1, 6] | inhibition at 10 µM [4] | inhibition at 10 µM [3, 7] | also measured
1 | 1-(1-(2-(2-chlorophenyl)acetyl)piperidin-4-yl)-1,3-dihydro-2H-benzo[d]imidazol-2-one [Compound 4] | reduce | – | – | – | – | Cytotoxicity TC50 [1]: 80.9 ± 3.2 µM; Pyroptosis Decrease, % inhibition at 10 µM [3]: inactive
2 | 2-(3-(3-(2-chlorophenyl)propanoyl)-2-oxo-2,3-dihydro-1H-benzo[d]- imidazol-1-yl)propionic acid [Compound 21] | reduced the inhibitory potential | the activity was suppressed | – | – | – | Cytotoxicity TC50 [1]: 80.1 ± 1.4 µM
3 | 3-(2-chlorophenyl)-N-(2-oxo-2-(4-(2-oxo-2,3-dihydro-1H-benzo[d]imidazol-1-yl)piperidin-1-yl)ethyl)propenamide [Compound 6] | 22.5 ± 1.4% | about 35% | – | – | – | Cytotoxicity TC50 [1]: 61.7 ± 1.0 µM; IL-1β Inhibition, % inhibition at 10 µM ([4]; 10 µM): 18–21%; IL-1β Inhibition, % inhibition at 10 µM ([4]; listed as 6 (INF148), 10 µM): 21.0 ± 3.2 ^d %; NLRP3 ATPase inhibition at 1 mM compared with 100 µM [2]: no significant differences; Pyroptosis Decrease, % inhibition at 10 µM ([3]; 10 µM test compound, 1 h before ATP (5 mM, 90 min), vs vehicle-treated cells, mean ± SEM, NA = not active at 10 µM, listed as 6 (INF148)): 35.0 ± 6.9 ^d %
4 | 3-(2-chlorophenyl)-N-(4-oxo-4-(4-(2-oxo-2,3-dihydro-1H-benzo[d]imidazol-1-yl)piperidin-1-yl)butyl)propenamide [Compound 8] | – | 32.2 ± 10.6 ^d % | – | – | – | Cytotoxicity TC50 [1]: 86.3 ± 5.1 µM
5 | 3-(2-chlorophenyl)-N-methyl-N-(3-(2-oxo-2,3-dihydro-1H-benzo[d]imidazole-1-yl)propyl)propenamide [Compound 11] | – | – | – | – | – | Pyroptosis Decrease, % inhibition at 10 µM [3]: inactive
6 | C=C(Cc1ccccc1Cl)C(=O)N1CCC(n2c(=O)[nH]c3ccccc32)CC1 [Compound 1, 1-(1-(2-(2-chlorobenzyl)acryloyl)piperidin-4-yl)-1,3-dihydro-2H-benzo[d]imidazol-2-one] | – | – | 32.9 ± 19 µM and 32.9 ± 19.0 µM | 19.4 ± 0.4% | 24.9 ± 6.3% | IL-1β Inhibition, % inhibition at 10 µM ([4]; 10 µM): 14.4 ± 5.0%; inhibition at 100 µM [2]: 28.4 ± 2.6%
7 | O=C(CCc1ccccc1Cl)N1CCC(n2c(=O)[nH]c3ccccc32)CC1 [Compound 2, 1-(1-(3-(2-chlorophenyl)propanoyl)piperidin-4-yl)-1,3-dihydro-2H-benzo[d]imidazol-2-one] | – | – | 64.1 ± 4.7 µM | 10.3 ± 5.8% | 14.9 ± 5.8% | inhibition at 100 µM [2]: 28.6 ± 5.5%; inhibition at 50 µM ([3]; Homo sapiens, THP-1, 50 µM test compound): 29.1 ± 4.8%
8 | O=C(CCc1ccccc1Cl)NCCC(=O)N1CCC(n2c(=O)[nH]c3ccccc32)CC1 [Compound 7, 3-(2-chlorophenyl)-N-{3-oxo-3-[4-(2-oxo-2,3-dihydro-1,3-benzodiazol-1-yl)piperidin-1-yl]propyl}propanamide] | – | – | 62.4 ± 13.3 µM | 18 to 21% | ~35% | IL-1β Inhibition, % inhibition at 10 µM ([4]; 10 µM): 17.8 ± 7.5%
9 | O=C(CCc1ccccc1Cl)NCCn1c(=O)[nH]c2ccccc21 [Compound 9, 3-(2-chlorophenyl)-N-(2-(2-oxo-2,3-dihydro-1H-benzo[d]imidazol-1-yl)ethyl) propanamide] | restored the ATPase inhibition | – | 87.1 ± 1.9 µM | 20.3 ± 1.3% | 39.2 ± 6.6% | inhibition at 100 µM [2]: 18.3 ± 3.2%; NLRP3 ATPase inhibition at 1 mM compared with 100 µM [2]: no significant differences; inhibition at 1 µM ([3]; Homo sapiens): 20 to 30%
10 | O=C(CCc1ccccc1Cl)NCCCn1c(=O)[nH]c2ccccc21 [Compound 10, 3-(2-chlorophenyl)-N-(3-(2-oxo-2,3-dihydro-1H-benzo[d]imidazol-1-yl)propyl) propanamide] | no effect on ATPase inhibition was detected | inactive | >100 µM | – | – | –
11 | CNC(=NC#N)NC1CCN(C(=O)CCc2ccccc2Cl)CC1 [Compound 12, 1-(1-(3-(2-chlorophenyl)propanoyl)piperidin-4-yl)-2-cyano-3-methylguanidine] | – | – | >100 µM | 19 ± 0.4% | 15.7 ± 9.1% | –
12 | N#CN=C(NCc1ccccc1)NC1CCN(C(=O)CCc2ccccc2Cl)CC1 [Compound 13, 1-benzyl-3-(1-(3-(2-chlorophenyl)propanoyl)piperidin-4-yl)-2-cyanoguanidine] | significant inhibition of ATPase activity | able to inhibit | 85.7 ± 5.6 µM | 25.2 ± 4.9% | 45 ± 8.8% | IL-1β Inhibition, % inhibition at 10 µM ([4]; 10 µM): able to inhibit; inhibition at 100 µM [2]: 26.5 ± 3.1%; NLRP3 ATPase inhibition at 1 mM compared with 100 µM [2]: no significant differences; inhibition at 1 µM ([3]; Homo sapiens): 20 to 30%
13 | O=C(CCc1ccccc1Cl)N1CCC(n2cnc3ccccc32)CC1 [Compound 14, 1-(4-(1H-benzo[d]imidazol-1-yl)piperidin-1-yl)-3-(2-chlorophenyl)propan-1-one] | – | inactive | 92.6 ± 4.0 µM | – | – | –
14 | N#CN=c1[nH]c2ccccc2n1C1CCN(C(=O)CCc2ccccc2Cl)CC1 [Compound 15, N-(1-(1-(3-(2-chlorophenyl)propanoyl)piperidin-4-yl)-1,3-dihydro-2H-benzo[d]imidazol-2-ylidene)cyanamide] | significant inhibition of ATPase activity | inactive | 83.4 ± 0.8 µM | – | – | –
15 | O=C(CCc1ccccc1Cl)n1c(=O)[nH]c2ccccc21 [Compound 16, 1-(3-(2-chlorophenyl)propanoyl)-1,3-dihydro-2H-benzo[d]imidazol-2-one] | – | – | 77.3 ± 3.7 µM | 14.9 ± 8.8% | 37.7 ± 7.6% | –
16 | CCOC(=O)Cn1c(=O)n(CCc2ccccc2Cl)c2ccccc21 [Compound 22, Ethyl 2-(3-(2-chlorophenethyl)-2-oxo-2,3-dihydro-1H-benzo[d]imidazol-1-yl) acetate] | – | – | 92.8 ± 2.1 µM | – | – | –
17 | O=C(O)Cn1c(=O)n(CCc2ccccc2Cl)c2ccccc21 [Compound 23, 2-(3-(2-chlorophenethyl)-2-oxo-2,3-dihydro-1H-benzo[d]imidazol-1-yl)acetic acid] | – | – | 62.4 ± 1.2 µM | 13.9 ± 16.4% | 26.3 ± 3.5% | –
18 | CC(C)(O)c1coc(S(=O)(=O)NC(=O)Nc2c3c(cc4c2CCC4)CCC3)c1 [MCC950, reference compound] | – | – | >100 µM | 37.6 ± 6% | – | –
19 | Ethyl 2-(3-(3-(2-chlorophenyl)propanoyl)-2-oxo-2,3-dihydro-1H-benzo[d] imidazol-1-yl)propanoate [Compound 20] | – | 24.4 ± 6.8% | – | – | – | Cytotoxicity TC50 [1]: 57.6 ± 3.2 µM; IL-1β Inhibition, % inhibition at 10 µM [4]: 13.8 ± 5.4%

Reference: article PMC8271538, “Chemical Modulation of the 1-(Piperidin-4-yl)-1,3-dihydro-2H-benzo[d]imidazole-2-one Scaffold as a Novel NLRP3 Inhibitor” (Molecules, 2021)
